Measured values as given in the supplement of paper PMC5579334.
± gives the standard deviation of the averaged measurements.

What was measured:
YST-1 [1] = assay: drug sensitivity score (DSS, CellTiter-Glo viability, 72 h) (DSS (dimensionless)); higher = more sensitive; extreme values may be limits of the assay
Procedure, shortened: (§1)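 For this screen, 384-well plates were preprinted with each compound at five concentrations in 10-fold steps and seeded with MPNST cell lines or primary human Schwann cells at 750–1000 cells per well. Incubation lasted 72 h at 37 °C, 5% CO2, and CellTiter-Glo ATP luminescence, scaled between vehicle and positive-control wells and averaged over duplicates where available, served as viability. Logistic fits with four parameters were applied. Relative IC50 (censored at the top concentration) and drug sensitivity score derive from these fits, and percent inhibition is at the top concentration.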

HS-Sch-2 [2] = assay: as above
Procedure, shortened: as §1

S462 [3] = assay: as above
Procedure, shortened: as §1

STS26T [4] = assay: as above
Procedure, shortened: as §1

[5] = tested on: HSC1 (primary human Schwann cells); assay: as above
Procedure, shortened: as §1

ST8814 [6] = assay: as above
Procedure, shortened: as §1

HS-PSS [7] = assay: as above
Procedure, shortened: as §1

S1507-2 [8] = assay: as above
Procedure, shortened: as §1

[9] = tested on: HSC2 (primary human Schwann cells); assay: as above
Procedure, shortened: as §1

STS26T [10] = assay: drug sensitivity score (DSS, CellTox-Green cytotoxicity, 72 h) (DSS (dimensionless)); higher = more cytotoxic; extreme values may be limits of the assay
Procedure, shortened: (§2)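 MPNST cell lines and primary human Schwann cells were grown for 72 h at 37 °C in 384-well plates containing five 10-fold compound dilutions. CellTox-Green, added before seeding at a final 1:1000 dilution, gave fluorescence from DNA released by disrupted cells, and signals were scaled to vehicle and positive-control wells. Curves were fitted with a four-parameter logistic model. Drug sensitivity score and relative IC50 come from these fits, with IC50 censored at the top concentration.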

[11] = tested on: HSC1 (primary human Schwann cells); assay: as above
Procedure, shortened: as §2

ST8814 [12] = assay: as above
Procedure, shortened: as §2

HS-PSS [13] = assay: as above
Procedure, shortened: as §2

S1507-2 [14] = assay: as above
Procedure, shortened: as §2

[15] = tested on: HSC2 (primary human Schwann cells); assay: as above
Procedure, shortened: as §2

YST-1 [16] = assay: % inhibition of CellTiter-Glo viability at highest tested concentration (72 h), relative to DMSO and benzethonium chloride controls; higher = more inhibition
Procedure, shortened: as §1

HS-Sch-2 [17] = assay: as above
Procedure, shortened: as §1

S462 [18] = assay: as above
Procedure, shortened: as §1

STS26T [19] = assay: as above
Procedure, shortened: as §1

[20] = tested on: HSC1 (primary human Schwann cells); assay: as above
Procedure, shortened: as §1

ST8814 [21] = assay: as above
Procedure, shortened: as §1

HS-PSS [22] = assay: as above
Procedure, shortened: as §1

S1507-2 [23] = assay: as above
Procedure, shortened: as §1

[24] = tested on: HSC2 (primary human Schwann cells); assay: as above
Procedure, shortened: as §1

| SMILES | drug sensitivity score (YST-1 [1]) | drug sensitivity score (HS-Sch-2 [2]) | drug sensitivity score (S462 [3]) | drug sensitivity score (STS26T [4]) | drug sensitivity score [5] | drug sensitivity score (ST8814 [6]) | drug sensitivity score (HS-PSS [7]) | drug sensitivity score (S1507-2 [8]) | drug sensitivity score [9] | drug sensitivity score (STS26T [10]) | drug sensitivity score [11] | drug sensitivity score (ST8814 [12]) | drug sensitivity score (HS-PSS [13]) | drug sensitivity score (S1507-2 [14]) | drug sensitivity score [15] | % inhibition (YST-1 [16]) | % inhibition (HS-Sch-2 [17]) | % inhibition (S462 [18]) | % inhibition (STS26T [19]) | % inhibition [20] | % inhibition (ST8814 [21]) | % inhibition (HS-PSS [22]) | % inhibition (S1507-2 [23]) | % inhibition [24] |
| --- | --- | --- | --- | --- | --- | --- | --- | --- | --- | --- | --- | --- | --- | --- | --- | --- | --- | --- | --- | --- | --- | --- | --- | --- |
| CC(C)N(CCCNC(=O)Nc1ccc(C(C)(C)C)cc1)C[C@H]1O[C@@H](n2cc(Br)c3c(N)ncnc32)[C@H](O)[C@@H]1O [SGC0946] (max concentration tested 10000 nM) | 1.03 | 3.88 | 0.582 ± 0.82 | 0 | 0.65 | 2.58 | 6.51 | 3.16 ± 1.4 | 0.163 | 0 | 0 | 3.21 | 2.32 | 0.24 ± 0.046 | 0 | 29% | 67.2% | 19.2 ± 8.9% | 4.04% | 23.1% | 52.9% | 79.5% | 42.7 ± 1.2% | 16.3% |
| CC(C)(C)c1cnc(CSc2cnc(NC(=O)C3CCNCC3)s2)o1 [SNS-032] (max concentration tested 10000 nM) | 29.4 | 27.9 | 36.8 ± 1.5 | 31.5 | 36.9 | 24.5 | 25.9 | 18.6 ± 1.5 | 38 | 23.2 | 12.8 | 14.4 | 1.68 | 0 | 14.3 | 99.9% | 98.6% | 104 ± 0.55% | 97.5% | 79.4% | 87.2% | 70.5% | 80.6 ± 3.5% | 86.5% |
| CN1CCN(CCOc2cc(OC3CCOCC3)c3c(Nc4c(Cl)ccc5c4OCO5)ncnc3c2)CC1 [Saracatinib] (max concentration tested 10000 nM) | 0.09 | 3.07 | 3.91 ± 0.7 | 5.09 | 7.06 | 5.63 | 6.08 | 7.04 ± 1.5 | 3.21 | 1.58 | 0 | 5.67 | 1.13 | 9.49 ± 1.6 | 6.91 | 14.6% | 51.7% | 36.2 ± 0.27% | 50.2% | 50.3% | 55.2% | 67.5% | 74.8 ± 2.1% | 37.1% |
| CC[C@H](CO)Nc1nc(NCc2ccccc2)c2ncn(C(C)C)c2n1 [Seliciclib] (max concentration tested 10000 nM) | 0 | 0.52 | 1.26 ± 0.44 | 0.759 | 0.597 | 0 | 2.39 | 0 | 1.23 | 0 | 0 | 0 | 0.1 | 0 | 0 | 5.74% | 22.6% | 32.2 ± 3.6% | 23.2% | 22.5% | 5.24% | 30.8% | -2.22 ± 4.7% | 34.7% |
| Cn1cnc2c(F)c(Nc3ccc(Br)cc3Cl)c(C(=O)NOCCO)cc21 [Selumetinib] (max concentration tested 10000 nM) | 0 | 2.54 | 5.86 ± 0.93 | 4.18 | 2.51 | 5.82 | 0.02 | 7.78 ± 3.3 | 3.74 | 0 | 0 | 1.43 | 0 | 0.984 ± 0.39 | 0 | 5.28% | 35.6% | 51.8 ± 5.1% | 33.6% | 41.3% | 51.4% | 12.8% | 50.8 ± 4.4% | 44.1% |
| c1ccc2c(CCNc3ccc(Nc4ccncc4)cc3)c[nH]c2c1 [Serdemetan] (max concentration tested 10000 nM) | 11.6 | 4.57 | 10.8 ± 0.46 | 5.45 | 6.36 | 12.2 | 6.09 | 8.56 ± 0.85 | 7.15 | 3.19 | 0.111 | 12.5 | 3.27 | 4.77 ± 0.64 | 0 | 92.5% | 96.2% | 100.5 ± 0.77% | 78.5% | 65.5% | 99.5% | 95.3% | 93.39 ± 0.52% | 70.3% |
| CO[C@H]1C[C@@H]2CC[C@@H](C)[C@@](O)(O2)C(=O)C(=O)N2CCCC[C@H]2C(=O)O[C@H]([C@H](C)C[C@@H]2CC[C@@H](O)[C@H](OC)C2)CC(=O)[C@H](C)/C=C(\C)[C@@H](O)[C@@H](OC)C(=O)[C@H](C)C[C@H](C)/C=C/C=C/C=C/1C [Sirolimus] (max concentration tested 100 nM) | 6.14 | 3.47 | 0 | 1.7 | 0.673 | 0.411 | 4.11 | 0.128 ± 0.18 | 1.62 | 0 | 0 | 0 | 0 | 0.0997 ± 0.14 | 0 | 45.1% | 29.1% | 1.96 ± 4.9% | 27.9% | 24.6% | 14.7% | 32.9% | 5.52 ± 9% | 23.2% |
| C=CCN(/C=C1/C(=O)O[C@H](COC)[C@@]2(C)C1=C(O)C(=O)C1=C2[C@H](OC(C)=O)C[C@]2(C)C(=O)CC[C@@H]12)CC=C [Sonolisib] (max concentration tested 10000 nM) | 0 | 0 | 0.831 ± 1.2 | 0.263 | 0 | 0.745 | 0 | 0.798 ± 0.34 | 0.415 | 0 | 0 | 0 | 0 | 0 | 0 | 7.12% | -0.71% | 17.1 ± 5.5% | 11.4% | 6.67% | 7.84% | 3.89% | 15.9 ± 0.9% | 13.1% |
| CNC(=O)c1cc(Oc2ccc(NC(=O)Nc3ccc(Cl)c(C(F)(F)F)c3)cc2)ccn1 [Sorafenib] (max concentration tested 1000 nM) | 0 | 0 | 0 | 0 | 0 | 0 | 0 | 0 | 0 | 0 | 0 | 0 | 0 | 0 | 0 | 11.4% | -11.4% | -1.24 ± 2.1% | -3.72% | -5.93% | -4.54% | -0.19% | -6.35 ± 3.5% | -21.1% |
| CN1CCN(c2nc(C3=C(c4c[nH]c5ccccc45)C(=O)NC3=O)c3ccccc3n2)CC1 [Sotrastaurin] (max concentration tested 10000 nM) | 0.45 | 0 | 0.0588 ± 0.083 | 0 | 0 | 0.337 | 0 | 0.00765 ± 0.011 | 0 | 0 | 0 | 0 | 0 | 0 | 0 | 17.7% | 5.75% | 11.8 ± 2% | -3.71% | -32.7% | 7.08% | 3.47% | 6.26 ± 6.6% | -36.1% |
| O=[N+]([O-])c1ccc2c(c1)S(=O)(=O)C=C2 [Stattic] (max concentration tested 50000 nM) | 17.4 | 18.6 | 11.3 ± 3.2 | 13.7 | 16.8 | 14.9 | 18.7 | 7.88 ± 2.4 | 13.9 | 12 | 15.6 | 7.96 | 12.8 | 5.93 ± 1.3 | 9.26 | 101% | 100% | 96.03 ± 0.43% | 95.6% | 98.5% | 94.6% | 101% | 95.7 ± 1.3% | 98.3% |
| CC(C)n1cnc2c(NCCc3ccc(O)cc3)nc(-c3csc4ccccc34)nc21 [StemRegenin 1] (max concentration tested 10000 nM) | 0 | 4.66 | 0.493 ± 0.7 | 1.69 | 1.71 | 1.77 | 2.39 | 0.495 ± 0.7 | 2.51 | 0.0972 | 0 | 0 | 0 | 0 | 0 | -1.94% | 92.9% | 15.8 ± 7.6% | 41.7% | 42% | 31.3% | 46.5% | 19 ± 17% | 37% |
| CN(N=O)C(=O)N[C@@H]1[C@@H](O)[C@H](O)[C@@H](CO)O[C@@H]1O [Streptozocin] (max concentration tested 10000 nM) | 0.32 | 0.37 | 0 | 0 | 0 | 0 | 1.36 | 0 | 0 | 0 | 0 | 0 | 0 | 0.108 ± 0.15 | 0 | 9.13% | 15.2% | -6.63 ± 1.8% | -0.477% | -2.68% | 6.38% | 7.67% | -6.55 ± 6.7% | -3.21% |
